Laboratory results: ChEMBL document CHEMBL1148800, “Novel 2,7-dialkyl-substituted 5(S)-amino-4(S)-hydroxy-8-phenyl-octanecarboxamide transition state peptidomimetics are potent and orally active inhibitors of human renin” (J Med Chem, 2007)

Experiments:
[1] = species on record: Callithrix jacchus; assay: animal or person; details: Plasma, po, 6 h, read-out: Inhibition
Description: Inhibition of plasma renin activity in sodium depleted marmoset at 10 mg/kg, po after 6 hrs

[2] = species on record: Callithrix jacchus; assay: animal or person; details: Plasma, po, 6 h, read-out: Inhibition; remark: listed apart in the source
Description: Inhibition of plasma renin activity in sodium depleted marmoset at 3 mg/kg, po after 6 hrs

Molecule `COCCCOc1cc(C[C@@H](C[C@H](N)[C@@H](O)C[C@@H](C)C(=O)NCC(C)(C)N2CCOCC2)C(C)C)ccc1OC` has an inhibition in vivo at 10 mg/kg [1] of 88%.

Work on `COCCCOc1cc(C[C@@H](C[C@H](N)[C@@H](O)C[C@@H](C)C(=O)NCCN2CCSCC2)C(C)C)ccc1OC` yielded an inhibition in vivo at 3 mg/kg [2] of 28%.

`COCCCOc1cc(C[C@@H](C[C@H](N)[C@@H](O)C[C@@H](C)C(=O)NCCCC(N)=O)C(C)C)ccc1OC` gave an inhibition in vivo at 3 mg/kg [2] of 95%.
